Experimental data as given in patent publication US10107794B2, “Methods of using U2-OS cells to identify potential sweet taste modulators” (PepsiCo, Inc., priority 2013, dated 2018).

Key:
Assay type in all cases: cell-based
sweet receptor T1R2/T1R3 [1] = target: T1, sweet receptor T1R2/T1R3 (Homo sapiens, UniProt Q7RTX0+Q8TE23); assay: pERK1/2 assay in U2-OS cells transfected with Gα15; details: for pERK1/2 activation: U2-OS cells overexpressing Gα15 (6 μl/40,000 cells), 100 mM
T1 construct: Formation of green fluorescent vesicles in TRANSFLUOR U2-OS cells transfected with BacMam encoding Gα15; endogenous in cells; host or cells: TRANSFLUOR U2-OS cells stably expressing β-arrestin-GFP, transfected with BacMam Gα15
T1 sequence (Q8TE23 20-839): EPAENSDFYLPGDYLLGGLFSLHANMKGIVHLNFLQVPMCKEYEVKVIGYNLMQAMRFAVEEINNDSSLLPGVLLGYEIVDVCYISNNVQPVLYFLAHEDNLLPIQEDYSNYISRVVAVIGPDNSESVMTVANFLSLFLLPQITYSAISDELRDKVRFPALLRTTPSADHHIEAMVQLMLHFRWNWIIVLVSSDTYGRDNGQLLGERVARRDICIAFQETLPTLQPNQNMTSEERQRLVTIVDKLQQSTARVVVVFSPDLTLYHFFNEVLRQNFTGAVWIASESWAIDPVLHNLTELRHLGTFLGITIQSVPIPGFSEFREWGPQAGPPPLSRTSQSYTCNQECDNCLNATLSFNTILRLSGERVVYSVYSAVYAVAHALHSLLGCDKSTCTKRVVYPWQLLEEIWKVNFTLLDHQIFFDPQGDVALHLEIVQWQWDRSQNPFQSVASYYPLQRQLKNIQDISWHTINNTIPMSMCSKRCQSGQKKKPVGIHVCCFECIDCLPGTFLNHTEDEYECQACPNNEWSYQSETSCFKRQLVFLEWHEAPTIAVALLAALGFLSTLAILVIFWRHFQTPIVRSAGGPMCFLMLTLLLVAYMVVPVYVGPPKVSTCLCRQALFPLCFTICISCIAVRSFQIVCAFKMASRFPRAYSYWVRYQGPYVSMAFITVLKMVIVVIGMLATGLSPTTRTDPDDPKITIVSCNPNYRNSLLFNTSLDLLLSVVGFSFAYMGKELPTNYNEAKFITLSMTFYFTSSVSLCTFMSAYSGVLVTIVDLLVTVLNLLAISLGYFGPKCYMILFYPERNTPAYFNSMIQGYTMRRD
T1 sequence (Q7RTX0 21-852): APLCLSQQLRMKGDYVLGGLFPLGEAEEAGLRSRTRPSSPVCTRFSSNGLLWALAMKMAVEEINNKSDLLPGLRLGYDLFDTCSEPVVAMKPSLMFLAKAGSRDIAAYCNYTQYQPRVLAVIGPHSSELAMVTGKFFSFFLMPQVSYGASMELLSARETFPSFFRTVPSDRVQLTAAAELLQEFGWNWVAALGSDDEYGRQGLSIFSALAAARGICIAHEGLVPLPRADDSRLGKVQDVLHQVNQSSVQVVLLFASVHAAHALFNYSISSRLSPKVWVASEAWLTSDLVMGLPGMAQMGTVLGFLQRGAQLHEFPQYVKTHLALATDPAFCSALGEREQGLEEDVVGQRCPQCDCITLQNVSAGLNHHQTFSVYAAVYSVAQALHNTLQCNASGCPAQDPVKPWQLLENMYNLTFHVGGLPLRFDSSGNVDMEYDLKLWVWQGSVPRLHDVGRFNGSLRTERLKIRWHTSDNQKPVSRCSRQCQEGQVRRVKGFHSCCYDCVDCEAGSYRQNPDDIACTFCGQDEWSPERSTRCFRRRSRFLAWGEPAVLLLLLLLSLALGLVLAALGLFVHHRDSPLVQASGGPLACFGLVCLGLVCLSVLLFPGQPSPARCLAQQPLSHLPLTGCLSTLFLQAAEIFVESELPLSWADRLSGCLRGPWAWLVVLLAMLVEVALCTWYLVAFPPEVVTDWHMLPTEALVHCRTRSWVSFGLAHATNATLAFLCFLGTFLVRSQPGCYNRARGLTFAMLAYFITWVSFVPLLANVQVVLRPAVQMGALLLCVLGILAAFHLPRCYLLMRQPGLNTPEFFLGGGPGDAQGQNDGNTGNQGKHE
Description: (§1) U2-OS cells were transiently transfected with 0.5-12 μl of BacMam encoding G protein, gustducin (Gα15, Gα16gust44) per 40,000 cells during 24 h or 48 h. Transfected cells were seeded at density of 5,000 cells/well on PDL-coated 384-well plates.
For pERK1/2 studies, growth media was replaced with media without serum for 2 h. U2-OS cells were treated with 100 mM Sweet compounds with or without of U73122 (10 μM) and with or without […] (20 mM). Control groups of cells also received DMSO (0.1%) in medium. The fixed cells were stained with rabbit anti-phospho-p44/p42 MAPK (pERK1/2) antibodies from Cell Signaling Technologies, then with secondary Alexa 488-conjugated antibodies (Life Technology) and HOECHST 33342. Images were acquired on an ImageXpressMicro (MDC) and analyzed with MWCS Module.
The phosphorylation of ERK1/2 is a common downstream event following GPCR activation via the PLCβ2-IP3 pathway. Growth media was replaced with Dulbecco's phosphate buffered saline (DPBS) without serum for 2 h. […] For each data point, average of Mean Cell Integrated intensity and standard deviation are calculated from quadruplicate data points. […]

[2] = target: T2, sweet taste receptor T1R2/T1R3/Gα15 (Homo sapiens, UniProt Q7RTX0+Q8TE23); assay: Calcium assay (FLIPR) in JUMP-IN T-REX U2-OS cells with doxycycline-inducible T1R2/T1R3/Gα15; details: U73122
T2 construct: expressed in transfected cells; host or cells: JUMP-IN T-REX U2-OS cells
T2 sequence (Q8TE23 20-839): T1 sequence (Q8TE23 20-839)
T2 sequence (Q7RTX0 21-852): T1 sequence (Q7RTX0 21-852)
Description: JUMP-IN T-REX U2-OS cells were transfected with the PJTI-R4EXP-CMV-TO-T1R3/T1R2/Gα15-pA and JTI-R4 Integrase vectors (Life Technology).
The peak increase in fluorescence over baseline was determined and is expressed as relative fluorescence units (RFU).

sweet receptor T1R2/T1R3 [3] = target: T1, sweet receptor T1R2/T1R3; assay: Calcium assay (FLIPR) in U2-OS cells transfected with Gα15; details: U2-OS transfected with Gα15 BacMam; 100 mM
Description: as §1
Calcium traces in Fluo-4AM loaded cells were recorded over time in FLIPR^Tetra (MDC) with λEX=470-495 nm and λEM=515-575 nm. The peak increase in fluorescence over baseline was determined and is expressed as relative fluorescence units (RFU).

sweet receptor T1R2/T1R3 [4] = target: T1, sweet receptor T1R2/T1R3; assay: pERK1/2 assay in parental U2-OS cells (high content imaging); details: 100 mM, 5, 15 and 30 minutes
Description: U2-OS cells were grown in McCoy media supplemented with 10% fetal bovine serum. Cells were seeded at density of 5,000 cells/well on PDL-coated 384-well plates.
For pERK1/2 studies, growth media was replaced with media without serum for 2 h. […] (20 mM). Control groups of cells also received DMSO (0.1%) in medium. […] Images were acquired on an ImageXpressMicro (MDC) and analyzed with MWCS Module.
The phosphorylation of ERK1/2 is a common downstream event following GPCR activation via the PLCβ2-IP3 pathway. Growth media was replaced with Dulbecco's phosphate buffered saline (DPBS) without serum for 2 h. […] For each data point, average of Mean Cell Integrated intensity and standard deviation are calculated from quadruplicate data points.

Compound | Ca2+ response (sweet receptor T1R2/T1R3 [3]) | pERK1/2 activation (sweet receptor T1R2/T1R3 [1]) | other results
COc1ccc2c(c1)CC[C@@H]1[C@@H]2CC[C@]2(C)[C@@H](NCCCCCCN3C(=O)C=CC3=O)CC[C@@H]12 [U73122] | – | – | Blockade of pERK1/2 activation (sweet receptor T1R2/T1R3 [1]; U73122 10 μM, U2-OS cells transfected with Gα15): blocked; Effect on Ca2+ release upon treatment with D-glucose and D-fructose [2]: abolished; Effect on Ca2+ response after stimulation with sucrose and sucralose [2]: had no effect
O=C(CO)[C@@H](O)[C@H](O)[C@H](O)CO [D-fructose] | significantly increased Ca^(2+) response | – | –
O=C[C@H](O)[C@@H](O)[C@H](O)[C@H](O)CO [D-glucose] | significantly increased Ca^(2+) response | induced pERK1/2 activation in a time-dependent manner | pERK1/2 activation (sweet receptor T1R2/T1R3 [4]): induced pERK1/2 activation in a time-dependent manner; pERK1/2 activation (sweet receptor T1R2/T1R3 [4]; listed as glucose): activates pERK1/2; pERK1/2 activation (sweet receptor T1R2/T1R3 [1]; listed as glucose): increased pERK1/2 activity
OC[C@H]1O[C@@](CO)(O[C@H]2O[C@H](CO)[C@@H](O)[C@H](O)[C@H]2O)[C@@H](O)[C@@H]1O [sucrose] | significantly increased Ca^(2+) response | – | –
OC[C@H]1O[C@H](O[C@H]2[C@H](O)[C@@H](O)C(O)O[C@@H]2CO)[C@H](O)[C@@H](O)[C@@H]1O (mixture of isomers) [maltose] | – | increased pERK1/2 activity | –
OC[C@H]1O[C@H](O[C@]2(CCl)O[C@H](CCl)[C@@H](O)[C@@H]2O)[C@H](O)[C@@H](O)[C@H]1Cl [sucralose] | induced Ca^(2+) response | – | –
